The results in this text go back to patent publication US20240279202A1 (NURIX THERAPEUTICS, INC., priority 2021, published 2024).

SMILES strings stand for the structures.

For the assay, the target named is T1, ITK (Mus musculus, UniProt Q03526).
T1 construct: mice were sacrificed and splenocytes were isolated and used to prepare protein lysates; from tissue; host or cells: mouse splenocytes (spleen) after oral dosing
T1 sequence (Q03526 1-625): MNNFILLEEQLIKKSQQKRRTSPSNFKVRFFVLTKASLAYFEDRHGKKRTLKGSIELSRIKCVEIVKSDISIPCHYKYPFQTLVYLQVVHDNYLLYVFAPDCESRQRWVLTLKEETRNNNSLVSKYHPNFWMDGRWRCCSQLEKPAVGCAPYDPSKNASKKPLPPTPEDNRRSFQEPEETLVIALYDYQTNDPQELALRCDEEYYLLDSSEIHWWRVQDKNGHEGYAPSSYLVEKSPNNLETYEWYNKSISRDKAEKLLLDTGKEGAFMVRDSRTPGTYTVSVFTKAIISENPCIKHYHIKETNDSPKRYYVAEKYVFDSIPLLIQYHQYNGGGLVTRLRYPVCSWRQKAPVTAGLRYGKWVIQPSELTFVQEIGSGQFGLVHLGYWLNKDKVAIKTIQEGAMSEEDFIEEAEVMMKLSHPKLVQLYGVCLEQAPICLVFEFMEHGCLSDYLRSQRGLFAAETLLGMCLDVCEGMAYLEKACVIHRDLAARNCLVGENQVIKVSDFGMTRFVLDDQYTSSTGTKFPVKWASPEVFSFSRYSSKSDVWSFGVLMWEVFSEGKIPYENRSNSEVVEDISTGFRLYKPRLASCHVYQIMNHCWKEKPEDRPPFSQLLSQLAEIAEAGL
Put plainly: Mouse PD assay for ITK degradation (Western blot, splenocytes after oral administration). The format is in vivo. As to conditions: for ITK (%) 90 mpk PO, 6 h: percent ITK remaining in mouse splenocytes relative to vehicle; for ITK degradation in vivo at 6 hours (FIG. 2): 90 mg/kg PO. As to the method:
Compounds 1, 3, 7, and 42 were formulated and administered at 90 mg/kg to mice by oral gavage (PO). Blood was collected at defined time points (after 1, 2, and 6 hours) after compounds administration to determine PK parameters. Concentration increased through 6 hours. Six hours later mice were sacrificed and splenocytes were isolated and used to prepare protein lysates. Total protein levels were determined in the lysates using the BCA assay according to standard methods. Equal amounts of protein were then analyzed by Western blot to determine the level of ITK expression in each sample. ITK band intensities were measured using Alpha View software and the percent of ITK remaining in each test animal was determined relative to the mean of ITK levels in vehicle control samples.
After 6 hours, splenocytes cells were harvested. ITK was evaluated by Western blotting.
Compounds 43, 4, 5, 10, 11, 12, 44, 14, 3, and 13 were administered to mice orally. After 6 hours, splenocytes cells were harvested. ITK was evaluated by Western blotting. Media was removed and cell pellets were lysed in 100 uL lysis buffer (RIPA buffer (Fisher, PI89901), cOmplete Mini EDTA-free protease inhibitor (Sigma 11836170001), Protease Inhibitor Cocktail (Sigma, P2714), Phosphatase Inhibitor Cocktail 2 and 3 (Sigma, P5726 and P0044), Benzonase (Sigma, E1014)). Cells were lysed overnight at −20° C. Following thaw, cells were centrifuged for 10 min at 13000 rpm, then transferred to new tube. Protein levels were determined by BCA Assay performed according to manufacturer's protocol (EMID Millipore, cat. no. 71285-3). Samples were combined with (4×) LDS Sample Buffer and (10×) Reducing Agent and H2O to equally load 20 ug protein per lane of a 26-well NuPAGE 4-12% Bis-Tris protein gel (1.0 mm, Thermo cat. no. NP0326). Samples were separated by running gels at constant 150 V in NuPAGE MES SDS Running Buffer. Following electrophoresis, proteins were transferred to nitrocellulose membranes using an iBlot Gel Transfer Device and iBlot Gel Transfer Stacks (Thermo cat. no. IB21001 and IB301001) and transfer method P3 (20V for 7 min). Membranes were blocked for 1 hr in 5% milk solution (TBS (0.2% Tween-20)). Following blocking, membranes were incubated with primary antibody (1:1000 CST ITK (2F12) #2380) overnight at 4° C. with gentle shaking. Blots were washed 2× in TBS (0.2% Tween-20), 30 min per wash. Following washes, blots were incubated in secondary HRP-conjugated antibody (Promega anti-Mouse IgG (H+L) HRP cat. no. W4021), 1:5000 in 5% milk solution (TBS (0.2% Tween-20)), for 1 hr at room temperature with gentle shaking. Blots were washed 2× in TBS (0.2% Tween-20), 30 min per wash. Blots were incubated with 1:1 mix of ECL reagents 1 & 2 (Amersham ECL Western Blotting Detection Reagent, cat. no. RPN2106) for 2 min at room temperature. Bands were visualized using a Protein Simple imager. Blots were then re-probed with a combination of anti-actin antibody (Sigma Monoclonal Mouse Anti-3-Actin (clone AC-15), cat. no. A5441) and secondary H1RP-conjugated antibody (Promega anti-Mouse IgG (H+L) HRP, cat. no. W4021) and similar steps were taken for incubation, wash, detection and visualization steps as above. The data was analyzed using Alpha View software. The densitometric reading for each sample band was normalized to that of the corresponding actin band per lane. Approximate % ITK remaining per sample was calculated as follows: […]
Once % ITK remaining has been calculated for each sample, groups are averaged together to show an means % ITK normalized to actin and relative to control.
Compounds 16, 17, and 18 were administered to mice orally. After 6 hours or 24 hours, splenocytes cells were harvested. ITK was evaluated by Western blotting. Plasma concentrations were determined by LC/MS/MS. Plasma samples were protein precipitated by addition of 100 μl of acetonitrile containing 50 ng/ml of internal standard. The resulting mixture was vortexed and centrifuged at 4000 RPM for 5 minutes. […]

Where [1] appears, read: mice, splenocytes, Western blot.
[2] abbreviates: mice, oral, splenocytes, Western blot.

Consider `CN(c1ccc2cc(-c3n[nH]c4c3C[C@@H]3C(F)(F)[C@]3(C)C4)[nH]c2c1)C(=O)[C@H]1C[C@]2(CCN(c3ccc4c(c3)C(=O)N([C@H]3CCC(=O)NC3=O)C4=O)C2)C1` (racemic) [Compound 71b, (2s,4s)-N-[2-[(4aS,5aR)-5,5-difluoro-5a-methyl-1H,4H,4aH,6H-cyclopropa[f]indazol-3-yl]-1H-indol-6-yl]-6-[2-[(3RS)-2,6-dioxopiperidin-3-yl]-1,3-dioxoisoindol-5-yl]-N-methyl-6-azaspiro[3.4]octane-2-carboxamide], for which the “ITK (%) 90 mpk PO, 6 h” value is recorded as 30%.

As to `CN(C(=O)CC[C@H]1CCN(c2ccc3c(c2)C(=O)N(C2CCC(=O)NC2=O)C3=O)C1)c1ccc2cc(-c3n[nH]c4c3C[C@@H]3C(F)(F)[C@]3(C)C4)[nH]c2c1` (stereo in doubt) [Compound 67, N-(2-((4aS,5aR)-5,5-difluoro-5a-methyl-1,4,4a,5,5a,6-hexahydrocyclopropafindazol-3-yl)-1H-indol-6-yl)-3-((3R)-1-(2-(2,6-dioxopiperidin-3-yl)-1,3-dioxoisoindolin-5-yl)pyrrolidin-3-yl)-N-methylpropanamide], the “ITK (%) 90 mpk PO, 6 h” value (90 mg/kg) was 190%.

Regarding `CN(C(=O)CC[C@H]1CCN(c2ccc3c(c2)C(=O)N(C2CCC(=O)NC2=O)C3=O)C1)c1ccc2cc(-c3n[nH]c4c3C[C@@H]3C(F)(F)[C@]3(C)C4)[nH]c2c1` (stereo in doubt) [Compound 68], the “ITK (%) 90 mpk PO, 6 h” value (90 mg/kg) turned out to be 240%.

Take `CN(C(=O)CCC1CCN(c2ccc3c(c2)C(=O)N(C2CCC(=O)NC2=O)C3=O)C1)c1ccc2cc(-c3n[nH]c4c3CCC(C)(C)C4)[nH]c2c1` (centres unmarked) [Compound 1, N-(2-(6,6-dimethyl-4,5,6,7-tetrahydro-1H-indazol-3-yl)-1H-indol-6-yl)-3-(1-(2-(2,6-dioxopiperidin-3-yl)-1,3-dioxoisoindolin-5-yl)pyrrolidin-3-yl)-N-methylpropanamide]: the “ITK (%) 90 mpk PO, 6 h” value is on record as 153%. Also, the “ITK degradation in vivo at 6 hours (FIG. 2)” value (from here on “ITK degradation … (FIG. 2)”) under setting [1] is “degraded ITK in vivo”.

Turning to `CN(C(=O)CCN1CCN(c2ccc3c(c2)C(=O)N(C2CCC(=O)NC2=O)C3=O)CC1)c1ccc2cc(-c3n[nH]c4c3CCC(C)(C)C4)[nH]c2c1` (centres unmarked) [Compound 2, N-(2-(6,6-dimethyl-4,5,6,7-tetrahydro-1H-indazol-3-yl)-1H-indol-6-yl)-3-(4-(2-(2,6-dioxopiperidin-3-yl)-1,3-dioxoisoindolin-5-yl)piperazin-1-yl)-N-methylpropanamide], the “ITK (%) 90 mpk PO, 6 h” value is 49.3%.

On to `C[C@@H](C(=O)N(C)c1ccc2cc(-c3n[nH]c4c3CCC(C)(C)C4)[nH]c2c1)N1CCN(CC2CCN(c3cccc4c3n(C)c(=O)n4C3CCC(=O)NC3=O)CC2)CC1` (stereo partly drawn) [Compound 3, (2S)—N-(2-(6,6-dimethyl-4,5,6,7-tetrahydro-1H-indazol-3-yl)-1H-indol-6-yl)-2-(4-((1-(1-(2,6-dioxopiperidin-3-yl)-3-methyl-2-oxo-2,3-dihydro-1H-benzo[d]imidazol-4-yl)piperidin-4-yl)methyl)piperazin-1-yl)-N-methylpropanamide], for which the “ITK (%) 90 mpk PO, 6 h” value worked out at 24%. Moreover, the “ITK degradation … (FIG. 2)” value under setting [1] is recorded as “degraded ITK in vivo”. Also, the “ITK degradation in vivo at 6 hours (FIG. 3A, FIG. 4A)” value under setting [2] is recorded as “degraded ITK in vivo”. Also, the “ITK degradation in vivo at 24 hours (FIG. 3A, FIG. 4A)” value (mice, oral, splenocytes, Western blot, 24 hours) is listed as “degraded ITK in vivo”.

Regarding `C[C@@H](C(=O)N(C)c1ccc2cc(-c3n[nH]c4c3CCC(C)(C)C4)[nH]c2c1)N1CCN(C[C@@H]2CCN(c3ccc4c(c3)n(C)c(=O)n4C3CCC(=O)NC3=O)C2)CC1` (stereo partly drawn) [Compound 4, (2S)—N-(2-(6,6-dimethyl-4,5,6,7-tetrahydro-1H-indazol-3-yl)-1H-indol-6-yl)-2-(4-(((3S)-1-(1-(2,6-dioxopiperidin-3-yl)-3-methyl-2-oxo-2,3-dihydro-1H-benzo[d]imidazol-5-yl)pyrrolidin-3-yl)methyl)piperazin-1-yl)-N-methylpropanamide], the “ITK (%) 90 mpk PO, 6 h” value is 75%. For the same compound, the “ITK degradation in vivo at 6 hours (FIG. 3A, FIG. 4A)” value under setting [2] is on record as “degraded ITK in vivo”.

Take `C[C@@H](C(=O)N(C)c1ccc2cc(-c3n[nH]c4c3CCC(C)(C)C4)[nH]c2c1)N1CCN(C[C@H]2CCN(c3ccc4c(c3)n(C)c(=O)n4C3CCC(=O)NC3=O)C2)CC1` (stereo partly drawn) [Compound 5, (2S)—N-(2-(6,6-dimethyl-4,5,6,7-tetrahydro-1H-indazol-3-yl)-1H-indol-6-yl)-2-(4-(((3R)-1-(1-(2,6-dioxopiperidin-3-yl)-3-methyl-2-oxo-2,3-dihydro-1H-benzo[d]imidazol-5-yl)pyrrolidin-3-yl)methyl)piperazin-1-yl)-N-methylpropanamide]: the “ITK (%) 90 mpk PO, 6 h” value was found to be 97%. Under setting [2], the “ITK degradation in vivo at 6 hours (FIG. 3A, FIG. 4A)” value is given as “degraded ITK in vivo”.

On to `C[C@@H](C(=O)N(C)c1ccc2cc(-c3n[nH]c4c3CCC(C)(C)C4)[nH]c2c1)N1CCN(CC2CCN(c3ccc4c(c3)n(C)c(=O)n4C3CCC(=O)NC3=O)CC2)CC1` (stereo partly drawn) [Compound 6, (2S)—N-(2-(6,6-dimethyl-4,5,6,7-tetrahydro-1H-indazol-3-yl)-1H-indol-6-yl)-2-(4-((1-(1-(2,6-dioxopiperidin-3-yl)-3-methyl-2-oxo-2,3-dihydro-1H-benzo[d]imidazol-5-yl)piperidin-4-yl)methyl)piperazin-1-yl)-N-methylpropanamide], for which the “ITK (%) 90 mpk PO, 6 h” value is 105%.

Turning to `C[C@@H](C(=O)N(C)c1ccc2cc(-c3n[nH]c4c3CCC(C)(C)C4)[nH]c2c1)N1CCN(CC2CCN(c3ccc(C(=O)NC4CCC(=O)NC4=O)nc3)CC2)CC1` (stereo partly drawn) [Compound 7, 5-(4-((4-((S)-1-((2-(6,6-dimethyl-4,5,6,7-tetrahydro-1H-indazol-3-yl)-1H-indol-6-yl)(methyl)amino)-1-oxopropan-2-yl)piperazin-1-yl)methyl)piperidin-1-yl)-N-(2,6-dioxopiperidin-3-yl)picolinamide], the “ITK (%) 90 mpk PO, 6 h” value is 100%. Also, under setting [1], the “ITK degradation … (FIG. 2)” value is on record as “degraded ITK in vivo”.
